One experiment deals with T1, IKZF1 (Homo sapiens, UniProt Q13422+Q96SW2).
T1 construct: expressed in transfected cells
In words: HEK293 HiBiT in vitro degradation of IKZF1. The following applies: for Dmax: HEK293, HEK293 HiBiT; for Dmax / IKZF1 Dmax: maximum degradation at the highest concentration tested; for DC50 / IKZF1 Dmax: HEK293 HiBiT; for DC50: 18-24 hr incubation, normalized to DMSO control, read-out: IKZF1 EC50. Format: cell-based. The gist of the method: (§1)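 Stable HEK293 reporter pools, each with one integrated tet-inducible copy of a HiBiT-tagged target, were induced with doxycycline overnight at 37 °C. After 18-24 h with compound dilution series, Nano-Glo lysis and luminescence yielded EC50 and Dmax values.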
Background: With HiBiT, luminescence reflects the tagged protein that the partner subunit can reach.

The target of the next experiment is IKZF2 (Homo sapiens, UniProt Q96SW2+Q9UKS7). In words: HEK293 HiBiT in vitro degradation of IKZF2. Format: cell-based. Details: expressed in transfected cells. The following applies: for Dmax: HEK293, HEK293 HiBiT; for Dmax / IKZF2 Dmax: maximum degradation at the highest concentration tested; for DC50 / IKZF2 Dmax: HEK293 HiBiT; for DC50: 18-24 hr incubation, normalized to DMSO control, read-out: IKZF2 EC50. The procedure, abridged: as §1
Chain of IKZF2 (Q9UKS7 1-500 isoform Q9UKS7-2): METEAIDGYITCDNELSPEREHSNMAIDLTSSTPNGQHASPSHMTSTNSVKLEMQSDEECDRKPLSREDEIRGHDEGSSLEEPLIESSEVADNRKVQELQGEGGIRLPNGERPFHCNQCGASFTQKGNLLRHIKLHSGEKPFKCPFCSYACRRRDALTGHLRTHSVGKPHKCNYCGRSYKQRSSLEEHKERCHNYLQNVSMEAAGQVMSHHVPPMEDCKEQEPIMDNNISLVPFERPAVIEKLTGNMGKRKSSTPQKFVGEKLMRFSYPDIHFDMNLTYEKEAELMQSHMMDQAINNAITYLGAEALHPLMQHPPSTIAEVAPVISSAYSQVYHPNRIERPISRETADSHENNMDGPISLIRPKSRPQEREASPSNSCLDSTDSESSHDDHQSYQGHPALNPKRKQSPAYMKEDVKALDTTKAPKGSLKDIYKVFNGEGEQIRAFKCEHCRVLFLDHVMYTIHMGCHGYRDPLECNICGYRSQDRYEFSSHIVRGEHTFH
Chain of IKZF2 (Q96SW2 whole entry): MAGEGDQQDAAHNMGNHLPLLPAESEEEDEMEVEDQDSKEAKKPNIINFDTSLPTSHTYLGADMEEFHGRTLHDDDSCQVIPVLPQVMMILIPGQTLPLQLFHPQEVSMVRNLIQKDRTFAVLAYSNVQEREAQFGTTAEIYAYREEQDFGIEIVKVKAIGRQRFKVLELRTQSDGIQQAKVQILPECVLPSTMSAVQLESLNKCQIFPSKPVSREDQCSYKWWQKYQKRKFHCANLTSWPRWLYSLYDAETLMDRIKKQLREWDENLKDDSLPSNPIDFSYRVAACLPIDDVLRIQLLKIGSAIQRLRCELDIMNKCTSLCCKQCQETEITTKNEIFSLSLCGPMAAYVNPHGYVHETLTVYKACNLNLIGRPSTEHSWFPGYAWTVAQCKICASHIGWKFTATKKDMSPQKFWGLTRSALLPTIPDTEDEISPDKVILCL
Chain of IKZF2 (Q16531 whole entry partner): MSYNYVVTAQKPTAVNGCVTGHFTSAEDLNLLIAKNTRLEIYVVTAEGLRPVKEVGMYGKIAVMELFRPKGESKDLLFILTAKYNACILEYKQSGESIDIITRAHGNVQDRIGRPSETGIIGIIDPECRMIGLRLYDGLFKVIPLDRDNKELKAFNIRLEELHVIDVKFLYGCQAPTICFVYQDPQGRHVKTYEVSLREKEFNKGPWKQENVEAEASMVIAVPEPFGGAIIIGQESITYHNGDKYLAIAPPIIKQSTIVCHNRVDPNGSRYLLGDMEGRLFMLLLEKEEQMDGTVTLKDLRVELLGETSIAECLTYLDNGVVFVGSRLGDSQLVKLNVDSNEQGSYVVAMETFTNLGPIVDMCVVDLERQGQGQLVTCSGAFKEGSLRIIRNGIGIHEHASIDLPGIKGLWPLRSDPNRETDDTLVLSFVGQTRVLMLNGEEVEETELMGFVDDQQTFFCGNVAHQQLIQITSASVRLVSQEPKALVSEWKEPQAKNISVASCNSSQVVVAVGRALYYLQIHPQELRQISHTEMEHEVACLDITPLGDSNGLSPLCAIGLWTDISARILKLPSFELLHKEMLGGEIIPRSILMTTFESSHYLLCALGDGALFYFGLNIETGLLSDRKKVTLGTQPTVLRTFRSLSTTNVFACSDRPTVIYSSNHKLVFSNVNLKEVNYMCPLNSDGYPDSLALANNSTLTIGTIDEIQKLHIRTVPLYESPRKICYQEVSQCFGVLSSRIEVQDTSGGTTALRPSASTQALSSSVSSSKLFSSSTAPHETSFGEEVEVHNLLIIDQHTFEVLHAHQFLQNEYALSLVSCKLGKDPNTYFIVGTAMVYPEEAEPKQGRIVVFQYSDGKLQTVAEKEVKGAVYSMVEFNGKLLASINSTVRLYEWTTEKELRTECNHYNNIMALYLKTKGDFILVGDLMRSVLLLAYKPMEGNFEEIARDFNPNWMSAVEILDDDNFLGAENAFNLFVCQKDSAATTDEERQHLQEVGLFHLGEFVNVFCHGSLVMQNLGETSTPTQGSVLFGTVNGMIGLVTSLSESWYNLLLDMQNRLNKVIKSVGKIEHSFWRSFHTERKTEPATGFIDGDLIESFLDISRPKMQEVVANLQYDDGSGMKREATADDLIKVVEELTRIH

T1 sequence (Q13422 whole entry): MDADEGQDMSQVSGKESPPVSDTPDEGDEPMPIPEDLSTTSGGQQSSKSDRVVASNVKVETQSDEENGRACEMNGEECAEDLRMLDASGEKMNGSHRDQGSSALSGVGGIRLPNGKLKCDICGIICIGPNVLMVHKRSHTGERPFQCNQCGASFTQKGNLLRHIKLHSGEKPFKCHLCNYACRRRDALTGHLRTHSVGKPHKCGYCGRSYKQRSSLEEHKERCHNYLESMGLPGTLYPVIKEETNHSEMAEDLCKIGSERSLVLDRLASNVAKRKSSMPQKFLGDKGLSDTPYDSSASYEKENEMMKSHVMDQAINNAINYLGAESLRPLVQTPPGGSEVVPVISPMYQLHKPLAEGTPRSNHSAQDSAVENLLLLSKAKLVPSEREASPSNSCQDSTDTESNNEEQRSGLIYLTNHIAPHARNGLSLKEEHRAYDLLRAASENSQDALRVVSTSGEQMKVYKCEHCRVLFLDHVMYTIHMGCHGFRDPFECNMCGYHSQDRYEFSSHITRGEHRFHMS
T1 sequence (Q96SW2 whole entry): as the sequence (Q96SW2 whole entry) above
T1 sequence (Q16531 whole entry partner): as the sequence (Q16531 whole entry partner) above

With `O=C1CCC(N2Cc3c(ccc(C[C@H]4CCCC[C@@H]4NCC45CC(C4)C5)c3F)C2=O)C(=O)N1` (stereo partly drawn) [Example 96], at IKZF1, the Dmax amounted to 35% and the DC50 amounted to 173 nM. Further, on IKZF2, the Dmax was 95% and the DC50 turned out to be 9 nM.
For `CC(N[C@H]1CCCC[C@@H]1Cc1ccc2c(c1)CN(C1CCC(=O)NC1=O)C2=O)C(C)(C)F` (single isomer, unassigned) [Example 227], the DC50 at IKZF1 was above 500 nM; on IKZF2, 20 nM. In addition, the “IKZF2 Dmax” value on IKZF2 is listed as 86%.
Turning to `O=C1CCC(N2Cc3cc(C[C@H]4CCCC[C@@H]4NC4CCOC4)ccc3C2=O)C(=O)N1` (stereo partly drawn) [Example 73], at IKZF1, the DC50 was above 1000 nM. For the same molecule, on IKZF2, the Dmax was determined as 95% and the DC50 was 7 nM.
As for `O=C1CCC(N2Cc3cc(C[C@H]4C=C(F)CC[C@@H]4NC4CCCCC4)ccc3C2=O)C(=O)N1` (stereo partly drawn) [Example 314, 3-(5-(((1S,6S)-6-(cyclohexylamino)-3-fluorocyclohex-2-en-1-yl)methyl)-1-oxoisoindolin-2-yl)piperidine-2,6-dione], at IKZF1, the Dmax amounted to 30% and the DC50 was 653 nM. Further, on IKZF2, the greatest degradation seen (Dmax) came to 70% and the DC50 amounted to 90 nM.
Turning to `CC(N[C@H]1CCCC[C@@H]1Cc1ccc2c(c1)CN(C1CCC(=O)NC1=O)C2=O)C1(C(F)F)CC1` (stereo partly drawn) [Example 311], at IKZF1, the DC50 is above 1000 nM. At IKZF2, the Dmax is 95% and the DC50 amounted to 11 nM.
For `COc1ccc(CN[C@H]2CCCC[C@@H]2Cc2ccc3c(c2)CN(C2CCC(=O)NC2=O)C3=O)cc1` (stereo partly drawn) [Example 14, 3-(5-(((1R,2S)-2-((4-methoxybenzyl)amino)cyclohexyl)methyl)-1-oxoisoindolin-2-yl)piperidine-2,6-dione], in that order: above 1000 nM, 88% and 27 nM.
For `O=C1CCC(N2Cc3cc(C[C@H]4CCCC[C@@H]4NCc4ncccc4F)ccc3C2=O)C(=O)N1` (stereo partly drawn) [Example 50, 3-(5-(((1R,2S)-2-(((3-fluoropyridin-2-yl)methyl)amino)cyclohexyl)methyl)-1-oxoisoindolin-2-yl)piperidine-2,6-dione], in that order: above 1000 nM, 57% and 111 nM.
For the molecule `O=C1CCC(N2Cc3cc(C[C@H]4CCCC[C@@H]4N4CC(Oc5ccccc5Cl)C4)ccc3C2=O)C(=O)N1` (stereo partly drawn) [Example 30, 3-(5-(((1R,2S)-2-(3-(2-chlorophenoxy)azetidin-1-yl)cyclohexyl)methyl)-1-oxoisoindolin-2-yl)piperidine-2,6-dione], at IKZF1, the Dmax was 34% and the DC50 is 42 nM. At IKZF2, the Dmax amounted to 81% and the DC50 worked out at 29 nM.
For `CC(C)(C)CN[C@H]1CCCC[C@@H]1Cc1ccc2c(c1)CN(C1CCC(=O)NC1=O)C2=O` (stereo partly drawn) [Example 57, 3-(5-(((1R,2S)-2-(neopentylamino)cyclohexyl)methyl)-1-oxoisoindolin-2-yl)piperidine-2,6-dione], on IKZF1, the DC50 was above 1000 nM. On IKZF2, the Dmax amounted to 89% and the DC50 was 25 nM.
As to `O=C1CCC(N2Cc3cc(C[C@H]4CCCC[C@@H]4NC4CC5CCC4O5)ccc3C2=O)C(=O)N1` (stereo partly drawn) [Example 193], the DC50 on IKZF1 is above 1000 nM. Moreover, at IKZF2, the Dmax stood at 96% and the DC50 came out at 7 nM.
Turning to `O=C1CCC(N2Cc3cc(C[C@H]4OCCC[C@@H]4NC4CCC(C(F)(F)F)CC4)ccc3C2=O)C(=O)N1` (single isomer, unassigned) [Example 357], on IKZF1, the Dmax was found to be 40% and the DC50 turned out to be 465 nM. Also, at IKZF2, the DC50 was determined as 23 nM and the “IKZF2 Dmax” value came out at 89%.
With `N#CC1CCC(N[C@H]2CCCC[C@@H]2Cc2ccc3c(c2)CN(C2CCC(=O)NC2=O)C3=O)CC1` (single isomer, unassigned) [Example 268], on IKZF1, the DC50 came out at 76 nM and the “IKZF1 Dmax” value was 62%. At IKZF2, the DC50 came out at 6 nM and the “IKZF2 Dmax” value is listed as 98%.
On to `C[C@@H]1CCCC[C@H]1N[C@H]1CCCC[C@@H]1Cc1ccc2c(c1)CN(C1CCC(=O)NC1=O)C2=O` (relative stereo) [Example 303], for which the DC50 at IKZF1 is above 1000 nM. In addition, on IKZF2, the Dmax is 82% and the DC50 stood at 86 nM.
`O=C1CCC(N2Cc3c(ccc(C[C@H]4CCCC[C@@H]4NC4CCOC4)c3F)C2=O)C(=O)N1` (stereo partly drawn) [Example 189]: at IKZF1, the DC50 is 39 nM and the “IKZF1 Dmax” value is reported as 46%. On IKZF2, the DC50 amounted to 2 nM and the “IKZF2 Dmax” value amounted to 97%.
Regarding `O=C1CCC(N2Cc3cc(C[C@H]4C[C@@H](O)CC[C@@H]4NC4CCC(F)(F)CC4)ccc3C2=O)C(=O)N1` (stereo partly drawn) [Example 162], the greatest degradation seen (Dmax) was 42% on IKZF1 and 93% at IKZF2. In addition, the DC50 at IKZF1 was determined as 226 nM; at IKZF2, 58 nM.
The like results for `O=C1CCC(N2Cc3cc(C[C@H]4CCC(F)(F)C[C@@H]4NC4CCC(F)(F)CC4)ccc3C2=O)C(=O)N1` (stereo partly drawn) [Example 345] were, in that order, 56%, 97%, 174 nM and 4 nM.
In the case of `CC1CCC(N[C@H]2CCCC[C@@H]2Cc2ccc3c(c2)CN(C2CCC(=O)NC2=O)C3=O)CC1` (single isomer, unassigned) [Example 279], the figures for the Dmax on IKZF1 and at IKZF2 were 30% and 95%, respectively. For the same molecule, the DC50 on IKZF1 came to 51 nM; at IKZF2 it was 3 nM.
In the case of `CC(C)OC1CCC(N[C@H]2CCCC[C@@H]2Cc2ccc3c(c2)CN(C2CCC(=O)NC2=O)C3=O)CC1` (single isomer, unassigned) [Example 168], at IKZF1, the DC50 is 246 nM and the “IKZF1 Dmax” value turned out to be 39%. At IKZF2, the DC50 turned out to be 3 nM and the “IKZF2 Dmax” value is reported as 97%.
Consider `COCC1CCC(N[C@H]2CCCO[C@@H]2Cc2ccc3c(c2F)CN(C2CCC(=O)NC2=O)C3=O)CC1` (single isomer, unassigned) [Example 264], for which the figures for the DC50 on IKZF1 and at IKZF2 were above 1000 nM and 6 nM, respectively. This molecule also registered a Dmax at IKZF2 of 96%.
With `O=C1CCC(N2Cc3c(ccc(C[C@H]4OCCC[C@@H]4NC4CCCOC4)c3F)C2=O)C(=O)N1` (single isomer, unassigned) [Example 263], at IKZF1, the DC50 was above 1000 nM. Besides, at IKZF2, the DC50 was 95 nM and the “IKZF2 Dmax” value is 85%.
On to `O=C1CCC(N2Cc3cc(C[C@H]4CCCC[C@@H]4NC4C5CCC4COC5)ccc3C2=O)C(=O)N1` (stereo partly drawn) [Example 194], for which, at IKZF1, the DC50 was above 1000 nM. For the same molecule, at IKZF2, the maximal degradation (Dmax) turned out to be 92% and the DC50 was 20 nM.
Take `O=C1CCC(N2Cc3cc(C[C@H]4CCCC[C@@H]4NC4CCc5cn[nH]c5C4)ccc3C2=O)C(=O)N1` (single isomer, unassigned) [Example 359]: on IKZF1, the DC50 turned out to be 249 nM and the “IKZF1 Dmax” value is 43%. Also, on IKZF2, the DC50 is 9 nM and the “IKZF2 Dmax” value turned out to be 101%.
`O=C1CCC(N2Cc3c(ccc(C[C@H]4OCCC[C@@H]4NC4CCOC4)c3F)C2=O)C(=O)N1` (single isomer, unassigned) [Example 296]: the DC50 at IKZF1 is above 1000 nM. On IKZF2, the greatest degradation seen (Dmax) turned out to be 86% and the DC50 amounted to 105 nM.
As for `O=C1CCC(N2Cc3cc(C[C@H]4CCCC[C@@H]4NC4CCC5(CCO5)CC4)ccc3C2=O)C(=O)N1` (stereo partly drawn) [Example 172], at IKZF1, the DC50 was 203 nM and the “IKZF1 Dmax” value stood at 28%. Further, at IKZF2, the DC50 amounted to 19 nM and the “IKZF2 Dmax” value amounted to 98%.
As to `O=C1CCC(N2Cc3cc(C[C@H]4CCCC[C@@H]4NC4CC5CCC(C5)C4)ccc3C2=O)C(=O)N1` (stereo partly drawn) [Example 191], at IKZF1, the Dmax came out at 30% and the DC50 came to 63 nM. On IKZF2, the Dmax stood at 97% and the DC50 was 2 nM.
As to `O=C1CCC(N2Cc3cc(C[C@H]4CCCC[C@@H]4NC4CCc5c(C(F)(F)F)n[nH]c5C4)ccc3C2=O)C(=O)N1` (stereo partly drawn) [Example 375], the figures for the Dmax at IKZF1 and at IKZF2 were 65% and 99%, respectively. For the same molecule, the DC50 at IKZF1 was determined as 48 nM; on IKZF2, 4 nM.
The like results for `O=C1CCC(N2Cc3c(ccc(C[C@H]4OCCC[C@@H]4NC4CC5(CCCCC5)C4)c3F)C2=O)C(=O)N1` (stereo partly drawn) [Example 158] were, in that order, 50%, 91%, 72 nM and 11 nM.
For `O=C1CCC(N2Cc3cc(C[C@H]4OCCC[C@@H]4NC4CCC(C(F)(F)F)CC4)ccc3C2=O)C(=O)N1` (single isomer, unassigned) [Example 356], the DC50 at IKZF1 is above 1000 nM. In addition, on IKZF2, the maximal degradation (Dmax) was determined as 76% and the DC50 came to 49 nM.
Turning to `O=C1CC[C@@H](N2Cc3c(ccc(C[C@H]4OCCC[C@@H]4NC4CCCCC4)c3F)C2=O)C(=O)N1` (single isomer, unassigned) [Example 339], the DC50 at IKZF1 is above 1000 nM. In addition, at IKZF2, the Dmax came out at 93% and the DC50 was 11 nM.
`O=C1CCC(N2Cc3cc(C[C@H]4CCCC[C@@H]4NCc4ccccc4)ccc3C2=O)C(=O)N1` (single isomer, unassigned) [Example 25]: the DC50 at IKZF1 was above 1000 nM; at IKZF2, 23 nM.
On to `O=C1CCC(N2Cc3cc(C[C@H]4CCCC[C@@H]4NCc4cscn4)ccc3C2=O)C(=O)N1` (stereo partly drawn) [Example 36, 3-(1-oxo-5-(((1R,2S)-2-((thiazol-4-ylmethyl)amino)cyclohexyl)methyl)isoindolin-2-yl)piperidine-2,6-dione], for which, at IKZF1, the Dmax was 33% and the DC50 was 101 nM. In addition, at IKZF2, the Dmax amounted to 89% and the DC50 amounted to 46 nM.

As usually defined, the Dmax is the largest share of the target that was removed.

For the origin of these results see patent US11897862B2 (Gilead Sciences, Inc., priority 2022, dated 2024).
